Source: ChEMBL document CHEMBL3046921, “Synthesis of 3,5-disubstituted isoxazolines as protein tyrosine phosphatase 1B inhibitors” (Med Chem Res, 2008)

Tests used:
[1] = molecular target: T1, Tyrosine-protein phosphatase non-receptor type 1 (Homo sapiens) (UniProt P18031); experiment: (§1) Inhibition of PTP1B (unknown origin) using p-nitrophenylphosphate as substrate at 100 uM after 10 min
T1 sequence (whole entry): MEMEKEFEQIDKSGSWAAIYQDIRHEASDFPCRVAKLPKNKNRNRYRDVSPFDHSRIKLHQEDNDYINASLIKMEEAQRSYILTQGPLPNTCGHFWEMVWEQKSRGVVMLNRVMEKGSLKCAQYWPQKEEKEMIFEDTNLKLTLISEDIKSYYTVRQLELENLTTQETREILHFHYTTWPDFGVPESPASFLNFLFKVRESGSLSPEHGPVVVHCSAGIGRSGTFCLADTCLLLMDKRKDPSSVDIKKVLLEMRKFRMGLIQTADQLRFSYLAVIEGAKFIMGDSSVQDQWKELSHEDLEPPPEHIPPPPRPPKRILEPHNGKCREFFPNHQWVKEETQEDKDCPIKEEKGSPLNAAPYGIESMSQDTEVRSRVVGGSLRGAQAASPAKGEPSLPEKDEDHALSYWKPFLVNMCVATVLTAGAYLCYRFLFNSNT

[2] = test system: Rattus norvegicus; experiment: Antidiabetic activity in albino Rattus norvegicus Sprague-Dawley (rat) streptozotocin-induced diabetic model assessed as reduction of blood glucose level at 100 mg/kg, po after 5 hr; type: functional; parameters: scale not given: the % may be the effect or the level left
[3] = test system: Rattus norvegicus; experiment: Antidiabetic activity in albino Rattus norvegicus Sprague-Dawley (rat) streptozotocin-induced diabetic model assessed as reduction of blood glucose level at 100 mg/kg, po after 24 hr; type: functional; parameters: scale not given: the % may be the effect or the level left
[4] = molecular target: T2, Tyrosine-protein phosphatase non-receptor type 1 (Homo sapiens, UniProt P18031); experiment: Inhibition of PTP1B (unknown origin) using p-nitrophenylphosphate as substrate after 10 min
T2 sequence (P18031 whole entry): T1 sequence (whole entry)

[5] = molecular target: Tyrosine-protein phosphatase non-receptor type 1 (Homo sapiens) (UniProt P18031); experiment: as §1; remark: listed apart in the source

Row | Compound | inhibition [1] [%] | Activity [2] [%] | Activity [3] [%] | IC50 [4] [µM] | Ki [4] [µM] | inhibition [5] [%]
1 | COC(=O)C1C(c2ccc(OC)cc2OC)=NOC1c1ccccc1 (stereo unspecified) | 46.5 | 21.6 | 7.74 | 165 | 135 | 
2 | COc1c(C2=NOC(c3ccccc3)C2)ccc2occc12 (stereo unspecified) | 80.4 |  |  | 76 |  | 
3 | COc1ccc(C2=NOC(c3ccncc3)C2)c(OC)c1 (stereo unspecified) | 11.5 |  |  | 275 | 150 | 
4 | COc1ccc(C2CC(c3ccc4c(c3OC)C=CC(C)(C)O4)=NO2)cc1 (stereo unspecified) | 57.7 |  |  |  |  | 
5 | COc1ccc(C2=NOC(n3ccnc3)C2)c(OC)c1 (stereo unspecified) | 79.8 | 22.3 | 15 | 88 | 63 | 
6 | COc1ccc(C2=NOC(c3ccccc3)C2)c(OC)c1 (stereo unspecified) | 88.5 | 18 | 19.7 | 69 | 48 | 
7 | COc1ccc(C2=NOC(c3ccccc3)C2)c(OC(C)=O)c1 (stereo unspecified) | 28.8 | 20.5 | 6.96 |  |  | 
8 | COc1c(C2=NOC(c3ccccn3)C2)ccc2c1C=CC(C)(C)O2 (stereo unspecified) | 62.4 |  |  |  |  | 
9 | COc1ccc(C2=NOC(c3ccccc3)C2)c(O)c1 (stereo unspecified) | 47.1 |  |  |  |  | 
10 | COc1ccc(C2CC(c3ccc(OC)cc3OC)=NO2)cc1 (stereo unspecified) | 65.8 | 2.56 | 12.2 | 67 | 48 | 
11 | CC(=O)Oc1ccc(C2=NOC(c3ccccc3)C2)c(OC(C)=O)c1 (stereo unspecified) | 91.6 | 23 | 15 |  |  | 
12 | SODIUM [sequence] |  |  |  |  |  | 56.2
13 | COc1ccc(C2=NOC(c3ccccn3)C2)c(OC)c1 (stereo unspecified) | 9.8 |  |  | 485 | 170 | 
14 | CN(C)C(=N)NC(=N)N [METFORMIN] |  | 23.6 | 26.5 |  |  | 
15 | SODIUM HYDROXYTRIOXIDOVANADIUM |  |  |  | 86.5 | 67 | 
16 | COc1ccc(C2CC(c3ccc4occc4c3OC)=NO2)cc1 (stereo unspecified) | 79.6 |  |  | 81 |  | 
17 | Oc1ccc(C2=NOC(c3ccccc3)C2)c(O)c1 (stereo unspecified) | 29.5 |  |  |  |  | 
18 | COc1c(C2=NOC(c3ccccc3)C2)ccc2c1C=CC(C)(C)O2 (stereo unspecified) | 64.2 |  |  |  |  | 
